# ChEMBL document CHEMBL1135299, “Design, synthesis and biological activity of novel non-peptidyl endothelin converting enzyme inhibitors, 1-phenyl-tetrazole-formazan analogues” (Bioorg Med Chem Lett, 2002)
# pIC50: −log10 of the molar value.
# Target: T1, Endothelin-converting enzyme 1 (Rattus norvegicus, UniProt P42893)
# T1 sequence (P42893 whole entry): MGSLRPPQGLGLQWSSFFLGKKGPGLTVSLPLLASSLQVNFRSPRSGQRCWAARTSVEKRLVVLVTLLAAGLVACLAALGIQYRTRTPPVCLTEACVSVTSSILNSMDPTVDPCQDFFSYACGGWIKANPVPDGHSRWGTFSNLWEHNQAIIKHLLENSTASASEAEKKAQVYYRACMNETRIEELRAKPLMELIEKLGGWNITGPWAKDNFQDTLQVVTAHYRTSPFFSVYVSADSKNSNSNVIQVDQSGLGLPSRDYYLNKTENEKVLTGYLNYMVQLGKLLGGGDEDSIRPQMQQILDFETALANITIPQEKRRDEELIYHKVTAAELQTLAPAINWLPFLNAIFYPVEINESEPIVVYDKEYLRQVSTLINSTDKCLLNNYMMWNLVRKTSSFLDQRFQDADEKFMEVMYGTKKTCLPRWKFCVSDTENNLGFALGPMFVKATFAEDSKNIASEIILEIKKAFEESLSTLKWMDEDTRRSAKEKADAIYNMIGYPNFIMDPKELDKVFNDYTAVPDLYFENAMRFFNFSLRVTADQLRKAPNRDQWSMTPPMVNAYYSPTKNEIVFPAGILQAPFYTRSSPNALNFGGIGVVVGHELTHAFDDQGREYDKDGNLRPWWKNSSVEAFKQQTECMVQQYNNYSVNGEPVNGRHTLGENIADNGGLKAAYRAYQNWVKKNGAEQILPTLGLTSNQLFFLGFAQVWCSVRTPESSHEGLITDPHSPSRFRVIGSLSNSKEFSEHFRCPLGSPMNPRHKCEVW
# Experiment: Tested in vitro for inhibition of Endothelin-converting enzyme (ECE) of rat lung membrane
# Format: tissue-based
row,Structure (SMILES),pIC50
1,c1ccc(C(=N/Nc2ccc(C3CCCCC3)cc2)/N=N/c2nnnn2-c2ccccc2)cc1,5.44
2,CC(C)(C)c1ccc(N/N=C(\N=N\c2nnnn2-c2ccccc2)c2ccccc2)cc1,5.42
3,Cc1ccc(N/N=C(\N=N\c2nnnn2-c2ccccc2)c2ccccc2)cc1,5.08
4,Cc1nn(-c2ccccc2)c(NC(=O)NS(=O)(=O)c2ccc(Cl)cc2)c1C#N,7.38
5,CC(C)c1ccc(N/N=C(\N=N\c2nnnn2-c2ccccc2)c2ccccc2)cc1,5.47
6,CCc1ccc(N/N=C(\N=N\c2nnnn2-c2ccccc2)c2ccccc2)cc1,5.42
7,c1ccc(N/N=C(\N=N\c2nnnn2-c2ccccc2)c2ccccc2)cc1,5.00
8,CCCc1ccc(N/N=C(\N=N\c2nnnn2-c2ccccc2)c2ccccc2)cc1,5.59
9,CCC(C)c1ccc(N/N=C(\N=N\c2nnnn2-c2ccccc2)c2ccccc2)cc1 (stereo not given),5.57

# Target: T2, Endothelin-converting enzyme 1 (Rattus norvegicus) (UniProt P42893)
# T2 sequence (whole entry): T1 sequence (P42893 whole entry)
# Experiment: Tested in vitro for percent inhibition of Endothelin-converting enzyme (ECE) of rat lung membrane at 10 uM
# Format: tissue-based
row,Structure (SMILES),inhibition [%]
1,Clc1ccc(N/N=C(\N=N\c2nnnn2-c2ccccc2)c2ccccc2)cc1,37
